Read-outs that look alike come from different tables or passages of the source.
What was measured:
[1] = test system: ARPE-19 cells; type: cell-based
Description: Cell morphology was visualized using light microscopy. Cell morphology observation using light microscopy permits determination of (i) cell number and density and (ii) whether or not cells in contact with an excipient agent display modified phenotype compared to a non-treated population of cells.
Cell morphology was analyzed in parallel by semi-quantitative scoring ranging from 5 to 1, from basal to lethal phenotype respectively, as shown in FIG. 23.
More specifically, cells were removed from an incubator for examination. Morphological shape of cells was visualized using a light microscope and CCD camera. Every 3 wells of a given concentration was observed through image analysis software. Then, a representative photograph describing the average appearance of cells was saved. The supernatant was either, kept for further predefined experiments to perform, or removed using vacuum-pump.
Resulting semi-quantitative scoring is represented as a function of time course and dose response. Score 5 : wild type phenotype of non-treated cells, 100% confluent adherent cells. This phenotype very much vary following post-seeding time. For example, at confluence ARPE-19 cells at 1 day appear well defined with visible outer membrane and dark grey cytoplasm. After 3 days of confluence, limits between cells become less visible and cells adopt a more hexagonal shape and constitute an epithelium-like uniform dense structure. Score 4: density <100%. Cell shape has changed, some spaces are present between cells, few cells possibly detached. Score 3: 80% <Cell density <40%. Spaces are sometimes present among cells, areas appears confluent while in others, cells detached. General cell shape starts showing non negligible alterations. Score 2: Cell density <50%. Cells adopt exclusively stressed appearance, presence of mass dead floating cells. Score 1: Cell density <10%. Presence of almost exclusively dead cells.
Based on quotation, each condition of the applied compound was given a score which allow to a morphology evolution profile to be prepared, ie. cell morphology as a function of compound concentration and time of exposure. […]

[2] = test system: ARPE-19 cells; assay: MTT cell viability assay on ARPE-19 cells; conditions: for Cell survival: 0.1% (w/v)
Source text: (§1) Cell viability and cell morphology were examined to evaluate the toxicity of excipients on retinal pigment epithelial cells. The human retina cell line used in these experiments is the ARPE-19 cell line (human adult-derived retinal pigmented epithelial cells). […] They form tight-junctions with transepithelial resistance of monolayers (Dunn K C et al., supra). From a molecular standpoint, it appears that ARPE-19 express a huge pattern of genes similar to those expressed by human RPE from fresh explant which could account for their physiological function (Klimanskaya I. et al., “Derivation and comparative assessment of retinal pigment epithelium from human embryonic stem cells using transcriptomics”, Cloning and Stem Cells, 2004, 6(3):217-45).
(§2) ARPE-19 cells are widely used as a retinal model that resemble physiological properties of RPE cells. Similar methods of culturing ARPE-19 cells and cytotoxicity assays can be found in Yeung et al., “Cytotoxicity of triamcinolone on cultured human retinal pigment epithelial cells: comparison with dexamethasone and hydrocortisone”, Jpn J. Ophthalmol, 2004; 48:236-242. Cell viability and cell morphology were examined using conventional colormetric and visual methods. Viability and morphology measurements were obtained at 24 hours, 48 hours, and 72 hours after exposure to an excipient composition.
(§3) To assess cell viability, mitochondrial metabolism was quantified through conventional colorometric assays (i.e., the MTT assay). This calorimetric assay utilizes 3-(4,5-dimethylthiazol-2-yl)-2,5-diphenyltetrazolium bromide (MTT) and correlates mitochondrial metabolism and cell viability through measurement of dehydrogenase activity which converts a substrate into crystal. More specifically, the assay measures the activity of living cells through mitochondrial dehydrogenases. When dissolved in culture cell medium, MTT solution appears dark orange. Mitochondrial dehydrogenases of viable cells degrade MTT by cleaving the tetrazolium ring yielding to formation of a purple formazan crystal, which is insoluble in water. Crystals are subsequently dissolved in isopropanol solution. A resulting purple solution is spectrophotometrically measured. Cell viability is relative to amount of formazan and calculated as a percentage of remaining treated compared to non-treated cells.
(§4) Results from the MTT assay were expressed as a percentage of cell viability calculated using the following equation: % cell viability=ODtest/ODcontrol×100.
(§5) For each experiment, one concentration was performed in triplicate. Each point was spectrophotometrically read twice. Average of readings was calculated, then average from these 3 values was determined.
(§6) After 3 experiments were independently completed under the same conditions, a graph was plotted with cell viability expressed as a function of concentration (dose response) and for various incubation period (time course). The IC50 was then estimated based on the graphed data.
(§7) More specifically, cell density in 24-multiwell plates was observed on the day of the experiment to check if confluence of the cells was reached. Aliquots of MTT concentrated solutions were removed from a freezer at −20° C. and thawed at room temperature. Cell medium was warmed at 37° C. before use. Appropriated tubes for diluting compounds were prepared. Higher concentrations of each excipient agent was prepared. Serial dilution was then performed in cell medium (DMEM:F12+10% FBS).
(§8) Cell culture medium in the 24-well plate was removed using vacuum-pump. Cells were then stimulated with 0.5 ml final volume for each concentration of one given excipient agent. Distribution of the excipient-containing solution was performed using automated pipet-aid in sterile environment (under PSM) or not depending on time of compounds and duration of incubation.
(§9) After stimulation, cells were replaced in a CO2 incubator for the required time of exposure.

[3] = pH of excipient-containing incubating solutions; type: physicochemical
Description: (§10) For each concentration of tested compound, pH and osmolarity parameters were measured.

[4] = Osmolarity of excipient-containing incubating solutions; type: physicochemical
Description: Osmolarity was measured using osmometer type 13/13DR from Roebling (Berlin, GR).
as §10

[5] = in vitro; conditions: human, Cell viability
Source text: as §1, §2, §3, §4, §5, §6, §7, §8, §9

**Q.** Which “Living cells (observation)” value [1] does the source give for `OCc1ccccc1` [Benzyl alcohol, benzyl alcohol] here?
**A.** Its value is “no living cells survived”.

**Q.** What about the “IC50 based on cell morphology” value ([1]; ARPE-19, estimated from morphology data) of the same molecule?
**A.** Its value is “about 0.07%”.

**Q.** And the “Morphology limit concentration (%)” value ([1]; human)?
**A.** The value was 0.07%.

**Q.** And the “Cell morphology score, Mean” value ([1]; human, 24 h, 0.05 %)?
**A.** The value was 3.3.

**Q.** And the “Cell morphology score, Mean” value ([1]; human, 24 h, 0.1 %)?
**A.** Its value is 3.0.

**Q.** And the “Cell morphology score, Mean” value ([1]; human, 24 h, 0.5 %)?
**A.** Its value is 1.0.

**Q.** What about the “Cell morphology score, Mean” value ([1]; human, 24 h, 1 %) of the same molecule?
**A.** Its value is 1.0.

**Q.** What about the “Cell morphology score, Mean” value ([1]; human, 24 h, 2 %) of the same molecule?
**A.** Its value is 1.0.

**Q.** What about the “Cell morphology score, Mean” value ([1]; human, 24 h, […]) of the same molecule?
**A.** The value was 1.0.

**Q.** And the “Cell morphology score, Mean” value ([1]; human, 48 h, 0.05 %)?
**A.** Its value is 3.7.

**Q.** What about the “Cell morphology score, Mean” value ([1]; human, 48 h, 0.1 %) of the same molecule?
**A.** The value was 3.0.

**Q.** What about the “Cell morphology score, Mean” value ([1]; human, 48 h, 0.5 %) of the same molecule?
**A.** The value was 1.0.

**Q.** And the “Cell morphology score, Mean” value ([1]; human, 48 h, 1 %)?
**A.** Its value is 1.0.

**Q.** And the “Cell morphology score, Mean” value ([1]; human, 48 h, 2 %)?
**A.** The value was 1.0.

**Q.** And the “Cell morphology score, Mean” value ([1]; human, 48 h, […])?
**A.** The value was 1.0.

**Q.** What about the “Cell morphology score, Mean” value ([1]; human, 72 h, 0.05 %) of the same molecule?
**A.** Its value is 3.3.

**Q.** And the “Cell morphology score, Mean” value ([1]; human, 72 h, 0.1 %)?
**A.** The value was 3.0.

**Q.** And the “Cell morphology score, Mean” value ([1]; human, 72 h, 0.5 %)?
**A.** The value was 1.0.

**Q.** And the “Cell morphology score, Mean” value ([1]; human, 72 h, 1 %)?
**A.** Its value is 1.0.

**Q.** What about the “Cell morphology score, Mean” value ([1]; human, 72 h, 2 %) of the same molecule?
**A.** Its value is 1.0.

**Q.** What about the “Cell morphology score, Mean” value ([1]; human, 72 h, […]) of the same molecule?
**A.** The value was 1.0.

**Q.** And the “MTT IC50 (%)” value ([2]; ARPE-19 cells, summary Table 3)?
**A.** Its value is 0.07%.

**Q.** What about the “Cell viability, experiments 1, 2, 3” value ([2]; human, 72 h, 0.05 %) of the same molecule?
**A.** The value was 50.8%.

**Q.** What about the “pH of excipient dilution” value ([3]; 0.05% in culture medium) of the same molecule?
**A.** Its value is 8.

**Q.** And the “pH of excipient dilution” value ([3]; 0.1% in culture medium)?
**A.** The value was 8.1.

**Q.** What about the “pH of excipient dilution” value ([3]; 0.5% in culture medium) of the same molecule?
**A.** Its value is 8.

**Q.** What about the “pH of excipient dilution” value ([3]; 1% in culture medium) of the same molecule?
**A.** Its value is 7.9.

**Q.** And the “pH of excipient dilution” value ([3]; 2% in culture medium)?
**A.** The value was 8.

**Q.** And the “pH of excipient dilution” value ([3]; […] in culture medium)?
**A.** The value was 7.9.

**Q.** And the “Osmolarity of excipient dilution” value ([4]; 0.05% in culture medium)?
**A.** The value was 293 mOsm.

**Q.** What about the “Osmolarity of excipient dilution” value ([4]; 0.1% in culture medium) of the same molecule?
**A.** Its value is 307 mOsm.

**Q.** What about the “Osmolarity of excipient dilution” value ([4]; 0.5% in culture medium) of the same molecule?
**A.** Its value is 347 mOsm.

**Q.** What about the “Osmolarity of excipient dilution” value ([4]; 1% in culture medium) of the same molecule?
**A.** Its value is 398 mOsm.

**Q.** And the “Osmolarity of excipient dilution” value ([4]; 2% in culture medium)?
**A.** The value was 493 mOsm.

**Q.** And the “Osmolarity of excipient dilution” value ([4]; […] in culture medium)?
**A.** The value was 444 mOsm.

**Q.** Which results are given for `CCCCCCCC/C=C\CCCCCCCC(=O)OCCOCC(OCCO)C1OCC(OCCO)C1OCCO` (centres unmarked) [Polysorbate 80, polysorbate 80]?
**A.** viability at 24 h, 0.01 % ([5]; Mean (%)): 93.5%; viability at 24 h, 0.02 % ([5]; Mean (%)): 98.6%; viability at 24 h, 0.04 % ([5]; Mean (%)): 104%; viability at 24 h, 0.06 % ([5]; Mean (%)): 101%; viability at 24 h, 0.08 % ([5]; Mean (%)): 82.3%; viability at 24 h, 0.1 % ([5]; Mean (%)): 3.9%; viability at 48 h, 0.01 % ([5]; Mean (%)): 110%; viability at 48 h, 0.02 % ([5]; Mean (%)): 118%; viability at 48 h, 0.04 % ([5]; Mean (%)): 125%; viability at 48 h, 0.06 % ([5]; Mean (%)): 128%; viability at 48 h, 0.08 % ([5]; Mean (%)): 72.9%; viability at 48 h, 0.1 % ([5]; Mean (%)): 0.5%; viability at 72 h, 0.01 % ([5]; Mean (%)): 120%; viability at 72 h, 0.02 % ([5]; Mean (%)): 126%; viability at 72 h, 0.04 % ([5]; Mean (%)): 142%; viability at 72 h, 0.06 % ([5]; Mean (%)): 157%; viability at 72 h, 0.08 % ([5]; Mean (%)): 74.8%; viability at 72 h, 0.1 % ([5]; Mean (%)): 0.6%; viability at 24 h, 0.01 % ([5]; experiments 1, 2, 3): 90.3%; viability at 24 h, 0.02 % ([5]; experiments 1, 2, 3): 91.8%; viability at 48 h, 0.01 % ([5]; experiments 1, 2, 3): 109%; viability at 48 h, 0.02 % ([5]; experiments 1, 2, 3): 122%; viability at 48 h, 0.04 % ([5]; experiments 1, 2, 3): 126%; viability at 72 h, 0.01 % ([5]; experiments 1, 2, 3): 122%; viability at 72 h, 0.02 % ([5]; experiments 1, 2, 3): 129%; viability at 72 h, 0.04 % ([5]; experiments 1, 2, 3): 138%; viability at 72 h, 0.06 % ([5]; experiments 1, 2, 3): 148%; Cell survival [2]: substantially zero cell survival; Cell survival ([2]; listed as Tween80): lethality; pH of excipient dilution ([3]; 0.01% in culture medium): 7.5; pH of excipient dilution ([3]; 0.02% in culture medium): 7.6; pH of excipient dilution ([3]; 0.04% in culture medium): 7.5; pH of excipient dilution ([3]; 0.06% in culture medium): 7.5; pH of excipient dilution ([3]; 0.08% in culture medium): 7.5; pH of excipient dilution ([3]; 0.1% in culture medium): 7.6; Osmolarity of excipient dilution ([4]; 0.01% in culture medium): 310 mOsm; Osmolarity of excipient dilution ([4]; 0.02% in culture medium): 307 mOsm; Osmolarity of excipient dilution ([4]; 0.04% in culture medium): 313 mOsm; Osmolarity of excipient dilution ([4]; 0.06% in culture medium): 346 mOsm; Osmolarity of excipient dilution ([4]; 0.08% in culture medium): 390 mOsm; Osmolarity of excipient dilution ([4]; 0.1% in culture medium): 523 mOsm

**Q.** For hyaluronic acid [HA], which Cell viability [2] is on record?
**A.** The Cell viability was roughly 25%.
